Measurements reported in publication PMC7296983 (Journal of medicinal chemistry, 2019).

What was measured:
NNMT [1] = conditions: cited from earlier work
HCT116 = assay type: in vitro ADME; conditions: human, 100 μM
NNMT [2] = biological target: T1, NNMT (Homo sapiens, UniProt P40261); experiment: SAH hydrolase; assay type: biochemical; conditions: for activity compared to respective parent compound 1g, 1h and 3a: aspartic replaced by glutamic amino acid portion
T1 sequence (P40261 1-264): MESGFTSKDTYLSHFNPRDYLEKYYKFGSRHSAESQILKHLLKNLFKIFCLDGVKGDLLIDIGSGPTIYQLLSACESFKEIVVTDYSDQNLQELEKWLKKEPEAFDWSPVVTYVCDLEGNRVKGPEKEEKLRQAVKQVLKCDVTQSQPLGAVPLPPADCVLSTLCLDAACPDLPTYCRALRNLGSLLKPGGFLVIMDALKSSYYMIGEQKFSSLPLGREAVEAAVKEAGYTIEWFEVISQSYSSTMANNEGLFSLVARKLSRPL

NTMT1 = biological target: T2, NTMT1 (Homo sapiens, UniProt Q9BV86); experiment: Selectivity assay, SAHH-coupled fluorescence; assay type: biochemical; conditions: read-out: Enzyme activity (%)
T2 sequence (Q9BV86 1-223): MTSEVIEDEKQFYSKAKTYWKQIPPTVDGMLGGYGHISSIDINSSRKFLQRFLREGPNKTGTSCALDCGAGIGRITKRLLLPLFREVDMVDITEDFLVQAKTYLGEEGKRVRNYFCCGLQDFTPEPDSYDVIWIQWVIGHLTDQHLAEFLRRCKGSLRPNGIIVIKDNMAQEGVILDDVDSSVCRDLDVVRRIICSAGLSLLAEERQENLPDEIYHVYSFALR

PRMT1 = PRMT1 (Homo sapiens, UniProt Q99873); experiment: Selectivity assay, SAHH-coupled fluorescence; assay type: biochemical
TbPRMT7 = TbPRMT7 (Trypanosoma brucei brucei, UniProt Q582G4); experiment: biochemical
NNMT [3] = conditions: cited from earlier work; remark: listed apart in the source
NNMT [4] = conditions: cited from earlier work; remark: listed apart in the source
[5] = substrate: NC(=O)c1cccnc1; experiment: purified protein, by the assay type; conditions: other: substrate and cofactor, Figure S1; pH 7.5; 37.0 °C
SAH hydrolase = substrate: C[S+](CC[C@H](N)C(=O)[O-])C[C@H]1O[C@@H](n2cnc3c(N)ncnc32)[C@H](O)[C@@H]1O; experiment: SAH hydrolase; assay type: biochemical, human; conditions: other: substrate and cofactor, Figure S1; pH 7.5; 37.0 °C

Chain of PRMT1 (Q99873 whole entry, species assumed): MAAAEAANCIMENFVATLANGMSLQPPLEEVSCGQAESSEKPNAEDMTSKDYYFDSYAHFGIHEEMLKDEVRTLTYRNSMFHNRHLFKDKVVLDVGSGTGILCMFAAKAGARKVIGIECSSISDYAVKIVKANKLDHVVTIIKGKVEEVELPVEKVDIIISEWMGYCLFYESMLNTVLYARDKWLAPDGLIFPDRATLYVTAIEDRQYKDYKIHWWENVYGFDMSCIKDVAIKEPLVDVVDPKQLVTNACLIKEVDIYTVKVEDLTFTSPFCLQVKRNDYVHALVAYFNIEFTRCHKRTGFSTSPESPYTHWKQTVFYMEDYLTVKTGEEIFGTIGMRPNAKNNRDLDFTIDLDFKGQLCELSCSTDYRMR
Chain of TbPRMT7 (Q582G4 whole entry): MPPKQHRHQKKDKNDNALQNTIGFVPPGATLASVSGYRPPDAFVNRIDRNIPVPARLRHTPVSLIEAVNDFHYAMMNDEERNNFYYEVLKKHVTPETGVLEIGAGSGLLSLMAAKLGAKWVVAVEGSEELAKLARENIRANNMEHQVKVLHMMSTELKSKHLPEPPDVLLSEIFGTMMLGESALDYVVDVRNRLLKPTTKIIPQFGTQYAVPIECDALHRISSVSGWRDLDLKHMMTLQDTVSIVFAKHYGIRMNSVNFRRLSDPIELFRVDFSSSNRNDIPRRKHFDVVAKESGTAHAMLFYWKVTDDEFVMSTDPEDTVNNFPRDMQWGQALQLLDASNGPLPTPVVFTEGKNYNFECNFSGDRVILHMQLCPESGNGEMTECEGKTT

Question: With `Cc1ccncc1C(N)=O` [4-methylnicotinamide] as the molecule, how does the “Km relative to nicotinamide” value (NNMT [1]) read?
Answer: comparable to nicotinamide

Question: For `NC(=O)c1cccc(CCCN(CC[C@H](N)C(=O)O)C[C@H]2O[C@@H](n3cnc4c(N)ncnc43)[C@H](O)[C@@H]2O)c1` [Compound 1a], which “cell permeability (MS detection of cellular levels)” value (HCT116) is on record?
Answer: barely exhibited enhanced cell permeability

Question: Which “decrease of inhibitory activity compared with 1a” value (“decrease of inhibitory activity” below) (NNMT [2]) does the source give for `Cc1ccc(C(N)=O)cc1CCCN(CC[C@H](N)C(=O)O)C[C@H]1O[C@@H](n2cnc3c(N)ncnc32)[C@H](O)[C@@H]1O` [Compound 1b, (S)-2-amino-4-((((2R,3S,4R,5R)-5-(6-amino-9H-purin-9-yl)-3,4dihydroxytetrahydrofuran-2-yl)methyl)(3-(5-carbamoyl-2methylphenyl)propyl)amino)butanoic acid] here?
Answer: more than 3 fold

Question: For `Cc1ccc(CCCN(CC[C@H](N)C(=O)O)C[C@H]2O[C@@H](n3cnc4c(N)ncnc43)[C@H](O)[C@@H]2O)cc1C(N)=O` [Compound 1c, (S)-2-amino-4-((((2R,3S,4R,5R)-5-(6-amino-9H-purin-9-yl)-3,4dihydroxytetrahydrofuran-2-yl)methyl)(3-(3-carbamoyl-4methylphenyl)propyl)amino)butanoic acid], which “decrease of inhibitory activity” value (NNMT [2]) is on record?
Answer: marginally affected the inhibition

Question: With `NC(=O)c1cccc(CCCN(CCC[C@H](N)C(=O)O)C[C@H]2O[C@@H](n3cnc4c(N)ncnc43)[C@H](O)[C@@H]2O)c1` [Compound 1d, (S)-2-amino-5-((((2R,3S,4R,5R)-5-(6-amino-9H-purin-9-yl)-3,4-dihydroxytetrahydrofuran-2-yl)methyl)(3-(3-arbamoylphenyl)propyl)amino)pentanoic acid] as the molecule, how does the “decrease of inhibitory activity” value (NNMT [2]) read?
Answer: 70 fold

Question: For `Nc1ncnc2c1ncn2[C@@H]1O[C@H](CN(CCCc2cccc3ccccc23)CCC[C@H](N)C(=O)O)[C@@H](O)[C@H]1O` [Compound 1e, (S)-2-amino-5-((((2R,3S,4R,5R)-5-(6-amino-9H-purin-9-yl)-3,4-dihydroxytetrahydrofuran-2-yl)methyl)(3-(naphthalen-1-yl)propyl)amino)pentanoic acid], which “activity compared to respective parent compound 1g, 1h and 3a” value (NNMT [2]) is on record?
Answer: either comparable or 3-fold decreased activities

Question: For `Nc1ncnc2c1ncn2[C@@H]1O[C@H](CN(CCCc2ccc3ccccc3c2)CCC[C@H](N)C(=O)O)[C@@H](O)[C@H]1O` [Compound 1f, (S)-2-amino-5-((((2R,3S,4R,5R)-5-(6-amino-9H-purin-9-yl)-3,4-dihydroxytetrahydrofuran-2-yl)methyl)(3-(naphthalen-2-yl)propyl)amino)pentanoic acid], which “activity compared to respective parent compound 1g, 1h and 3a” value (NNMT [2]) is on record?
Answer: either comparable or 3-fold decreased activities

Question: For `COC(=O)c1cccc(CCCN(CC[C@H](N)C(=O)O)C[C@H]2O[C@@H](n3cnc4c(N)ncnc43)[C@H](O)[C@@H]2O)c1` [Compound 1j, (S)-2-amino-4-((((2R,3S,4R,5R)-5-(6-amino-9H-purin-9-yl)-3,4-dihydroxytetrahydrofuran-2-yl)methyl)(3-(3-(methoxycarbonyl)phenyl)propyl)amino)butanoic acid], which “decrease of inhibitory activity” value (NNMT [2]) is on record?
Answer: about 700 fold

Question: What does the source list for `NC(=O)c1cccc(C#CCN(CC[C@H](N)C(=O)O)C[C@H]2O[C@@H](n3cnc4c(N)ncnc43)[C@H](O)[C@@H]2O)c1` [Compound 2a, (S)-2-amino-4-((((2R,3S,4R,5R)-5-(6-amino-9H-purin-9-yl)-3,4-dihydroxytetrahydrofuran-2-yl)methyl)(3-(3-carbamoylphenyl)prop-2-yn-1-yl)amino)butanoic acid]?
Answer: remaining activity at 3.7 µM (NTMT1): 64%; IC50 (PRMT1): > 100 µM; IC50 (TbPRMT7): > 33 µM

Question: With `NC(=O)c1cccc(C#CCN(CC[C@H](N)C(=O)O)C[C@H]2O[C@@H](n3cnc4c(N)ncnc43)[C@H](O)[C@@H]2O)c1` [Compound 2a] as the molecule, how does the “cell permeability (MS detection of cellular levels)” value (HCT116) read?
Answer: limited permeability

Question: With `COc1ccc(C(N)=O)cc1C#CCN(CC[C@H](N)C(=O)O)C[C@H]1O[C@@H](n2cnc3c(N)ncnc32)[C@H](O)[C@@H]1O` [Compound 2b, (S)-2-amino-4-((((2R,3S,4R,5R)-5-(6-amino-9H-purin-9-yl)-3,4-dihydroxytetrahydrofuran-2-yl)methyl)(3-(5-carbamoyl-2-methoxyphenyl)prop-2-yn-1-yl)amino)butanoic acid] as the molecule, how does the “loss of activity compared to 2a” value (NNMT [2]) read?
Answer: 7 fold

Question: Which “loss of activity compared to 2a” value (NNMT [2]) does the source give for `Cc1ccc(C#CCN(CC[C@H](N)C(=O)O)C[C@H]2O[C@@H](n3cnc4c(N)ncnc43)[C@H](O)[C@@H]2O)cc1C(N)=O` [Compound 2c, (S)-2-amino-4-((((2R,3S,4R,5R)-5-(6-amino-9H-purin-9-yl)-3,4-dihydroxytetrahydrofuran-2-yl)methyl)(3-(3-carbamoyl-4-methylphenyl)prop-2-yn-1-yl)amino)butanoic acid] here?
Answer: comparable activity

Question: With `NC(=O)c1cccc(C#CCNC[C@H]2O[C@@H](n3cnc4c(N)ncnc43)[C@H](O)[C@@H]2O)c1` [Compound 2d, 3-(3-((((2R,3S,4R,5R)-5-(6-amino-9H-purin-9-yl)-3,4-dihydroxytetrahydrofuran-2-yl)methyl)amino)prop-1-yn-1-yl)benzamide] as the molecule, how does the “loss of activity compared to 2a” value (NNMT [2]) read?
Answer: ~500 fold

Question: For `NC(=O)c1cccc(CCCCN(CCC[C@H](N)C(=O)O)C[C@H]2O[C@@H](n3cnc4c(N)ncnc43)[C@H](O)[C@@H]2O)c1` [Compound 3b, (S)-2-amino-5-((((2R,3S,4R,5R)-5-(6-amino-9H-purin-9-yl)-3,4-dihydroxytetrahydrofuran-2-yl)methyl)(4-(3-carbamoylphenyl)butyl)amino)pentanoic acid], which “activity compared to respective parent compound 1g, 1h and 3a” value (NNMT [2]) is on record?
Answer: either comparable or 3-fold decreased activities

Question: Which results are given for `NC(=O)c1cccc(CCN(CCC[C@H](N)C(=O)O)C[C@H]2O[C@@H](n3cnc4c(N)ncnc43)[C@H](O)[C@@H]2O)c1` [MS2734]?
Answer: fold higher inhibitory activity than MS 2756 (NNMT [3]; aspartic amino acid replaced with glutamic acid in the SAM portion): over 10 fold; activity of previously reported bisubstrate analogs (NNMT [3]): moderate activities at μM range

Question: For `NC(=O)c1cccc(CCN(CC[C@H](N)C(=O)O)C[C@H]2O[C@@H](n3cnc4c(N)ncnc43)[C@H](O)[C@@H]2O)c1` [MS2756], which “activity of previously reported bisubstrate analogs” value (NNMT [3]) is on record?
Answer: moderate activities at μM range

Question: With `NC(=O)c1cccc(C#C[C@@H](CC[C@H](N)C(=O)O)C[C@H]2O[C@@H](n3cnc4c(N)ncnc43)[C@H](O)[C@@H]2O)c1` [NS1] as the molecule, how does the Ki (NNMT [4]) read?
Answer: ~0.0005 µM

Question: Which “Km relative to nicotinamide” value (NNMT [1]) does the source give for `c1ccc2ncccc2c1` [Quinoline] here?
Answer: comparable to nicotinamide

Question: For `c1ccc2cnccc2c1` [isoquinoline], which “Km relative to nicotinamide” value (NNMT [1]) is on record?
Answer: ~3 fold

B1: NNMT (Homo sapiens) (protein)
chain: T1 sequence (P40261 1-264)
Question: With B1 as the molecule, how does the Km [5] read?
Answer: 10 µM

Question: And the Km (SAH hydrolase)?
Answer: 10 µM
